“Also recorded” adds a separate entry of the source. Read-outs that look alike come from different tables or passages of the source.
How the values were obtained:
HCECs [1] = test: Endocytosis mechanism of 289WP/Ranibizumab composition (temperature, endocytosis inhibitors), HCECs; type: cell-based, human; settings: Mixture without inhibition = 100%
Protocol: (§1) The uptake amount of 289WP-FAM or Cy5-Rani in the Mixture without inhibition is used as control (100%). Significant differences were analyzed by 1-tailed ANOVA, corrected by Dunnett's test (n=3, ^nsp>0.05, *p<0.05, **p<0.01, ***p<0.001).

ARPE-19 cells [2] = test: Endocytosis mechanism of 289WP/Ranibizumab composition (temperature, endocytosis inhibitors), ARPE-19; type: cell-based, human; settings: Mixture without inhibition = 100%
Protocol: as §1

HCECs [3] = test: Cell uptake of Ranibizumab mediated by different polypeptides, HCECs; type: cell-based, human; settings: for increase of mean fluorescence intensity compared with free antibodies: 10 μM polypeptide + 1 μM Cy5-Rani (10:1), freshly prepared, 2 h, 37° C.; for mean fluorescence intensity of cells, comparison between polypeptides: composition solutions stored at 4° C. for 7 days; for cell uptake of Ranibizumab mediated by polypeptide, comparison between polypeptides: molar ratio 10:1, freshly prepared
Protocol: (§2) Well-grown cells HCECs, ARPE-19 and HUVECs were taken and plated respectively in a 24-well plate at 1×10^4 cells/well. After incubating for 24 h, the culture solution was discarded, and solutions of different compositions of polypeptide/Cy5-Rani mixture (containing 1 μM of Cy5-Rani) were added and incubated for 2 h at 37° C. The drug solution was then discarded, and the cells were washed 3 times with 10 mM PBS (containing 0.02 mg/mL heparin sodium), collected, and resuspended in 10 mM PBS. Flow cytometer was used for detecting positive cell rate and mean fluorescence intensity, with detecting channel excitation wavelength of 638 nm and emission wavelength of 660 nm. […] 10 μM of different polypeptides were mixed with 1 μM Cy5-Rani, respectively, and incubated at 4° C. for 24 h to obtain composition solutions. Before the detection, the composition solutions were incubated at 37° C. with different cells for 2 h, or the composition solutions were stored at 4° C. for 7 days and then incubated with the cells. Flow cytometer was used for detecting the mean fluorescence intensity values of cells (Ex 638 nm/Em 660 nm).

ARPE-19 cells [4] = test: Cell uptake of Ranibizumab mediated by different polypeptides, ARPE-19; type: cell-based, human; settings: for increase of mean fluorescence intensity compared with free antibodies: 10 μM polypeptide + 1 μM Cy5-Rani (10:1), freshly prepared, 2 h, 37° C.; for mean fluorescence intensity of cells, comparison between polypeptides: composition solutions stored at 4° C. for 7 days; for cell uptake of Ranibizumab mediated by polypeptide, comparison between polypeptides: molar ratio 10:1, freshly prepared
Protocol: as §2

[5] = rabbit, in vivo
Protocol: Firstly, eye drops were prepared. Polypeptide/Aflibercept composition was prepared by diluting Aflibercept (40 mg/mL) to 20 mg/mL with a commercially available Aflibercept injection solvent, dissolving polypeptide 289WP to 6.16 mg/mL with this solution, and storing at 4° C. for use. Before being used, the composition was incubated for at least 24 h at 4° C., and kept standing at room temperature for 1 h.
Next, the administration and sampling protocol were determined. Healthy male rabbits each about 1 kg were selected, eyes of which were ensured to be normal by ophthalmic examination before the experiment. The experimental process follows the ethical specifications of experimental animals. Each eye of the rabbit was dripped with 30 μL of different composition solutions containing 600 μg of Aflibercept per eye. Ocular tissue samples were taken at 1 h after administration.
Subsequently, the Aflibercept concentrations in tissues were determined. The ELISA plate coated with antigen (hVEGF-A165) was prepared, as well as the extracted tissues (total protein extraction solution of blood plasma, aqueous humor, vitreous humor and retina). […]
The concentrations of Aflibercept in tissues were measured at 1 h after administration. Significant differences were analyzed by 2-tailed unpaired t-test (^nsp>0.05, *p<0.05).

[6] = rabbit, in vivo; remark: listed apart in the source
Protocol: Firstly, eye drops were prepared. […] The compositions were stored at 4° C. for later use. Before being used, the compositions were incubated for at least 24 h at 4° C., and kept standing at room temperature for 1 h.
Subsequently, the administration and tissue sampling protocol were determined. Healthy male rabbits each about 1 kg were selected, eyes of which were ensured to be normal by ophthalmic examination before the experiment. The experimental process follows the ethical specifications of experimental animals. […] Ocular tissue samples were taken at 1 h, 4 h, 8 h, 12 h and 24 h after the administration.
The ELISA plate coated with antigen (hVEGF-A165) was prepared, as well as the extracted tissues (total protein extraction solution of blood plasma, aqueous humor, vitreous humor and retina).
Significant differences were analyzed by 1-tailed ANOVA, corrected by Tukey's test (^nsp>0.05, *p<0.05, **p<0.01, compared to the Rani group).

ARPE-19 cells [7] = test: Uptake of 89WP/nanoantibody compositions at different ratios, flow cytometry; type: cell-based, human; settings: 89WP:nanoantibody molar ratio 5:1 to 50:1; 2 h
Protocol: 89WP/nanoantibody eye drops were prepared according to the proportion in Table 5, and incubated overnight at 4° C. for later use.
The ARPE-19 cells were plated in a 24-well plate and cultured for over 24 h. The culture solution was then discarded, and 200 μL of the drug solution and 300 μL of serum-free culture solution were added into each well. After 2 h of incubation, the drug solution was discarded, and the cells were washed 3 times with PBS, digested and resuspended in PBS. Flow cytometer was used for detecting Cy5 fluorescence signals (Ex: 645 nm, Em: 665 nm).

[8] = tested on: HCECs, ARPE-19 and HUVECs; test: Cell uptake of polypeptide/Ranibizumab compositions at different molar ratios; type: cell-based, human; settings: 89WP:Ranibizumab molar ratio 5:1 to 18:1; 3 kinds of cells; 1 μM Cy5-Rani; 2 h, 37° C.
Protocol: First, Ranibizumab was fluorescently labeled. […] After the addition of 0.12 mg fluorescence labeling reagent Sulfo-Cy5-NHS, the solution was stirred and reacted overnight under the condition of 4° C.
Next, a polypeptide/Ranibizumab composition was prepared. Appropriate amount of polypeptide was weighed and dissolved by using a certain volume of commercially available Ranibizumab injection.
Well-grown cells HCECs, ARPE-19 and HUVECs were taken and plated respectively in a 24-well plate at 1×10^4 cells/well. After incubating for 24 h, the culture solution was discarded, and solutions of different compositions of polypeptide/Cy5-Rani mixture (containing 1 μM of Cy5-Rani) were added and incubated for 2 h at 37° C. The drug solution was then discarded, and the cells were washed 3 times with 10 mM PBS (containing 0.02 mg/mL heparin sodium), collected, and resuspended in 10 mM PBS. Flow cytometer was used for detecting positive cell rate and mean fluorescence intensity, with detecting channel excitation wavelength of 638 nm and emission wavelength of 660 nm.
Significance analysis was performed using One-Way ANOVA test, corrected by Tukey's test (n=3, ^nsp>0.05, *p<0.05, **p<0.01, ***p<0.001).

Row | Substance | increase of mean fluorescence intensity compared with free antibodies (HCECs [3]) [times] | mean fluorescence intensity of cells, comparison between polypeptides (HCECs [3]) | cell uptake of Ranibizumab mediated by polypeptide, comparison between polypeptides (HCECs [3]) | increase of mean fluorescence intensity compared with free antibodies (ARPE-19 cells [4]) [times] | mean fluorescence intensity of cells, comparison between polypeptides (ARPE-19 cells [4]) | cell uptake of Ranibizumab mediated by polypeptide, comparison between polypeptides (ARPE-19 cells [4]) | further results
1 | Cy5-Rani: Cy5-labeled Ranibizumab | – | – | – | – | – | – | cell uptake rate (HCECs [1]; Dynasore added): 24.4%; cell uptake rate (HCECs [1]; at 4° C.): 40.6%; cell uptake rate (HCECs [1]; chlorpromazine added): 37.8%; cell uptake rate (HCECs [1]; hypertonic sucrose added): 35.2%; cell uptake rate (ARPE-19 cells [2]; Dynasore added): 31.4%; cell uptake rate (ARPE-19 cells [2]; at 4° C.): 79.6%; cell uptake rate (ARPE-19 cells [2]; chlorpromazine added): 63.0%; cell uptake rate (ARPE-19 cells [2]; hypertonic sucrose added): 75.7%
2 | Q2W, Q8W, N9W-Penetratin (RWIKIWFWWRRMKWKK) [289WP] | 14.7 | still the highest | strongest capacity; also recorded: best effect | 11.3 | still the highest | best effect | –
3 | Aflibercept | – | – | – | – | – | – | intraocular absorption after eye drop without penetratin derivative [5]: hardly absorbed
4 | Q2W, N9W-Penetratin (RWIKIWFQWRRMKWKK) [29WP] | 13.5 | still the highest | strongest capacity; also recorded: best effect | 11.1 | still the highest | best effect | –
5 | Ranibizumab | – | – | – | – | – | – | intraocular absorption after eye drop without penetratin derivative [6]: hardly absorbed
6 | Q8W, N9W-Penetratin (RQIKIWFWWRRMKWKK) [89WP] | – | – | – | – | – | – | cell uptake of nanoantibody compared with nanoantibody alone (ARPE-19 cells [7]): significantly promote; increase of 89WP-mediated uptake of antibody compared with free antibody [8]: 2.2-6.7 times
